SMILES strings stand for the structures.

For orientation: Ki means a measure of affinity in units of concentration, obtained from inhibition or displacement. Low readings indicate a stronger hold on the target, high ones a looser hold on the target. By IC50 is commonly meant the concentration that inhibits the measured activity by half. A higher IC50 goes with weaker potency in that assay.

Assay [1] deals with Histone deacetylase (Eimeria tenella). In words: Binding affinity towards HDAC enzyme derived from Eimeria tenella protozoa.
Assay [2] addresses histone deacetylase enzyme from partially purified extracts of Eimeria tenella. Kind of assay: ChEBML_79057. An excerpt: Inhibitory activity against histone deacetylase enzyme derived from partially purified extracts of Eimeria tenella protozoa using [3H]11 as radioligand
The nature of assay [3]: Inhibitory activity against histone deacetylase enzyme derived from partially purified extracts of Eimeria tenella protozoa using [3H]11 as radioligand.

As for `CCCCCCCCCCC(=O)C[C@@H]1NC(=O)[C@H](CCCCCC(=O)CC)NC(=O)[C@H]2CCCCN2C(=O)[C@H]([C@@H](C)CC)NC1=O`, the Ki in assay [1] was > 1000 nM.
The same measure, in the same setting: the figure for `CCC(=O)CCCCC[C@@H]1NC(=O)[C@H]2CCCCN2C(=O)[C@H]([C@@H](C)CC)NC(=O)[C@@H](c2cnc3ccccc3c2O)NC1=O` is 250 nM.
Regarding `CCC(=O)CCCCC[C@@H]1NC(=O)[C@H]2CCCCN2C(=O)[C@H]([C@@H](C)CC)NC(=O)[C@H](CCOc2ccccc2)NC1=O`, it took 3 nM to reach half-maximal inhibition in assay [2] (IC50).
In the case of `CCC(=O)CCCCCc1[nH]c(O)c2n(c(O)c([C@@H](C)CC)[nH]c(=O)c(C(O)c3ccc4c(ccn4C)c3)nc1O)CCCC2` (stereo not given in full), the IC50 in assay [2] worked out at 30 nM.
`CCC(=O)CCCCCc1[nH]c(O)c2n(c(O)c([C@@H](C)CC)[nH]c(=O)c(CC(O)c3ccccc3[N+](=O)[O-])nc1O)CCCC2` (stereo not given in full) had an IC50 in assay [2] of 33 nM.
`CCC(=O)CCCCC[C@@H]1NC(=O)[C@H]2CCCCN2C(=O)[C@H]([C@@H](C)CC)NC(=O)[C@H](c2cnc3ccccc3c2Cl)NC1=O` had a Ki in assay [1] of 50 nM. This compound had a half-maximal inhibitory concentration (IC50) in assay [2] of 2 nM.
In the case of `CCC(=O)CCCCC[C@@H]1NC(=O)[C@H]2CCCCN2C(=O)[C@H]([C@@H](C)CC)NC(=O)[C@H](Cc2cn(C)c3ccccc23)NC1=O`, the IC50 in assay [2] is 5 nM.
`CCC(=O)CCCCC[C@@H]1NC(=O)[C@H]2CCCCN2C(=O)[C@H]([C@@H](C)CC)NC(=O)[C@H](c2cn(CC)c3ccccc3c2=O)NC1=O` had a Ki in assay [1] of 70 nM. The same compound came in with an IC50 in assay [2] of 11 nM.
Compound `CCC(=O)CCCCC[C@@H]1NC(=O)[C@H]2CCCCN2C(=O)[C@H]([C@@H](C)CC)NC(=O)[C@H](Cc2cn(CC(=O)O)c3ccccc23)NC1=O` showed an IC50 in assay [2] of 100 nM.
Consider `CCC(=O)CCCCCc1[nH]c(O)c2n(c(O)c([C@@H](C)CC)[nH]c(=O)c(C(O)c3c[nH]c4ccccc34)nc1O)CCCC2` (stereo not given in full), for which the IC50 in assay [2] amounted to 23 nM.
Still for that read-out and setting: the figure for `CCC(=O)CCCCC[C@@H]1NC(=O)[C@H]2CCCCN2C(=O)[C@H]([C@@H](C)CC)NC(=O)[C@H](Cc2cn(CC)c3ccccc23)NC1=O` is 100 nM.
In assay [3], `CCC(=O)CCCCC[C@@H]1NC(=O)[C@H]2CCCCN2C(=O)[C@H]([C@@H](C)CC)NC(=O)[C@H](C(=O)c2c[nH]c3ccccc23)NC1=O` returned an IC50 of 10 nM.
`CCCn1cc(C(O)c2nc(O)c(CCCCCC(=O)CC)[nH]c(O)c3n(c(O)c([C@@H](C)CC)[nH]c2=O)CCCC3)c2ccccc21` (stereo not given in full) displayed an IC50 in assay [2] of 4 nM.
Compound `CCC(=O)CCCCC[C@@H]1NC(=O)[C@H]2CCCCN2C(=O)[C@H]([C@@H](C)CC)NC(=O)[C@H](CC2CN(OC)c3ccc(Br)cc32)NC1=O` (stereo not given in full) gave an IC50 in assay [2] of 2500 nM.
The same measure, in the same setting: the figure for `CCC(=O)CCCCC[C@@H]1NC(=O)[C@H]2CCCCN2C(=O)[C@H]([C@@H](C)CC)NC(=O)[C@H](Cc2cn(OC)c3ccc(Br)cc23)NC1=O` is 175 nM; for `CCC(=O)CCCCC[C@@H]1NC(=O)[C@H]2CCCCN2C(=O)[C@H]([C@@H](C)CC)NC(=O)[C@H](Cc2c(-c3ccc4c(ccn4C)c3)[nH]c3ccccc23)NC1=O` it is 25 nM; for `CCC(=O)CCCCC[C@@H]1NC(=O)[C@H]2CCCCN2C(=O)[C@H]([C@@H](C)CC)NC(=O)[C@H](Cc2c(Br)[nH]c3ccccc23)NC1=O` it is 200 nM.
`CCC(=O)CCCCC[C@@H]1NC(=O)[C@H]2CCCCN2C(=O)[C@H]([C@@H](C)CC)NC(=O)[C@H](c2cn(OC)c3ccccc3c2=O)NC1=O` had a Ki in assay [1] of 30 nM. For the same compound, the IC50 in assay [2] was 4 nM.
In assay [1], `CCC(=O)CCCCC[C@@H]1NC(=O)[C@H]2CCCCN2C(=O)[C@H]([C@@H](C)CC)NC(=O)[C@H](c2cnc3ccccc3c2O)NC1=O` came in with a Ki of 10 nM.
For `CCC(=O)CCCCC[C@@H]1NC(=O)[C@H]2CCCCN2C(=O)[C@H]([C@@H](C)CC)NC(=O)[C@H](Cc2c[nH]c3ccccc23)NC1=O`, the midpoint of inhibition in assay [2], the IC50, lay at 1 nM.
As to `CCC(=O)CCCCC[C@@H]1NC(=O)[C@H]2CCCCN2C(=O)[C@H]([C@@H](C)CC)NC(=O)[C@H](c2cnc3ccccc3c2N2CCCCC2)NC1=O`, the Ki in assay [1] is 20 nM. This compound came in with a half-inhibitory concentration (IC50) in assay [2] of 0.8 nM.

The values above are taken from BindingDB's records for doi:10.1016/s0960-894x(00)00605-3 (Merck Research Laboratories, 2001).
